Columns and labels:
PI4K-IIIβ = PI4K-IIIβ (Homo sapiens, UniProt Q9UBF8); experiment: PI-kinase assay (membrane capture assay for lipid kinase activity), PI4KIIIβ; type: biochemical; conditions: read-out: PI4KIIIβ kinase activity (IC50 class)
Protocol: PI4-kinase inhibition can be determined by a kinase activity assay, e.g., by an assay that determines the level of incorporation of radiolabeled phosphate from [γ-^32P]-ATP into a substrate molecule after treatment with a subject compound, relative to a control, by measuring the beta-particle emission rate using a scintillation counter or phosphorimaging.
PI-kinase assay: Compounds are tested in C.1.1. PI kinase assays as described by Shokat et al., “A membrane capture assay for lipid kinase activity.” Nat. Protoc. […] Selected compounds of Table 1 and 2 were prepared and tested for inhibition activity in a variety of kinase assays.

PI4KIIIα = PI4KIIIα (Homo sapiens, UniProt P42356); conditions: weak inhibition; cited from earlier work
PI4KIIIα, sequence (P42356 whole entry): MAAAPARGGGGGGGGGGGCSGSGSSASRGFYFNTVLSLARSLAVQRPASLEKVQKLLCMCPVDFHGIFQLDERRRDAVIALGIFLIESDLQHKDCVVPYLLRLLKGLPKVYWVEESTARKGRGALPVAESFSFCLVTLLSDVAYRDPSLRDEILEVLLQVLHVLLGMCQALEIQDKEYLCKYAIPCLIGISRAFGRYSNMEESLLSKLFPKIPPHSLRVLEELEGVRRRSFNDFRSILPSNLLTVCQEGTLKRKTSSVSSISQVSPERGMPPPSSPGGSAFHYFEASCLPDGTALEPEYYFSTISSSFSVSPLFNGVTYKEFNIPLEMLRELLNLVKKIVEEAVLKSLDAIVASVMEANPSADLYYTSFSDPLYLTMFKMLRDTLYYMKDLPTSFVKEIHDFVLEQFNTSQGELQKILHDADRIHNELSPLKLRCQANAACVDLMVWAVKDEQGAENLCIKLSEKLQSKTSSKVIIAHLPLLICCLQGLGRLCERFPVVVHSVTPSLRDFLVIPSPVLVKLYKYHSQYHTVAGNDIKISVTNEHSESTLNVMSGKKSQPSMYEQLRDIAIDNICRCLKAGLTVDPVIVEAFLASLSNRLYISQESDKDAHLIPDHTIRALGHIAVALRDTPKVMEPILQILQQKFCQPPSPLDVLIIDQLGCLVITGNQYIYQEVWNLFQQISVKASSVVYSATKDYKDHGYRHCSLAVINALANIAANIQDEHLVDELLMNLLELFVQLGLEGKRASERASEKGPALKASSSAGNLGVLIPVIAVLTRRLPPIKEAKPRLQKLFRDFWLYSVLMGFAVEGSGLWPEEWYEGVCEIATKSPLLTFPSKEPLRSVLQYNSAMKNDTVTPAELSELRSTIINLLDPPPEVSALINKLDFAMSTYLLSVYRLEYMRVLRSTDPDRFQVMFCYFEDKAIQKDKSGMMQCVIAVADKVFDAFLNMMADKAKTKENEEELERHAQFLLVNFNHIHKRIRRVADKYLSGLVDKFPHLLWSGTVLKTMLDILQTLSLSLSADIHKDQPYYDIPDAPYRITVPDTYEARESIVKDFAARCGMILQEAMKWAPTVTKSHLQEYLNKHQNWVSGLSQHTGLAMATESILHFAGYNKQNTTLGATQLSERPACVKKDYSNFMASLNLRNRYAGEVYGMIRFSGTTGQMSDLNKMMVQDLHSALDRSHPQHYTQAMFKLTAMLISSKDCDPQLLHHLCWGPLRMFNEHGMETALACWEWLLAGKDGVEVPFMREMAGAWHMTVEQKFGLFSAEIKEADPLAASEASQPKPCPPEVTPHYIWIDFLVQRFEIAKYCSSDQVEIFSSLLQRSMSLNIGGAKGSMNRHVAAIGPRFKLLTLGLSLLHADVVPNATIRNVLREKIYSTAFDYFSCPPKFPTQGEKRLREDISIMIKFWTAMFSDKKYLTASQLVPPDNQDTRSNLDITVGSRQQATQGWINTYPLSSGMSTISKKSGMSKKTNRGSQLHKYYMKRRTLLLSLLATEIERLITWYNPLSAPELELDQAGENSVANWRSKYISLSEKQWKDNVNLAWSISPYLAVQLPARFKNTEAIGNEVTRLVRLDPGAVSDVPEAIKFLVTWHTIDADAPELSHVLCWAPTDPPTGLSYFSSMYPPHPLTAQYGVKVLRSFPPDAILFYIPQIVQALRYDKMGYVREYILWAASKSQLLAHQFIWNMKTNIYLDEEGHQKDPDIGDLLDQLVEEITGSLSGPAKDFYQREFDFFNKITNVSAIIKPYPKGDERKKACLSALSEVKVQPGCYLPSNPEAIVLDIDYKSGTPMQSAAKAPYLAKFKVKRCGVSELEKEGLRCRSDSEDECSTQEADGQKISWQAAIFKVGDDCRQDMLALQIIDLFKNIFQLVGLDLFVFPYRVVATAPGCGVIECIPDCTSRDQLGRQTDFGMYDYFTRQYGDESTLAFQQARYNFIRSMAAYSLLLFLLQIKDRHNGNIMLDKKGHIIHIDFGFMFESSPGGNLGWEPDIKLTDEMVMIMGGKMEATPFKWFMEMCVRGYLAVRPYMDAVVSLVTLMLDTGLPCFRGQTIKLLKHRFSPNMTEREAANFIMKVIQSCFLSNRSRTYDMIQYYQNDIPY

PI4K-IIIβ, sequence (Q9UBF8 whole entry): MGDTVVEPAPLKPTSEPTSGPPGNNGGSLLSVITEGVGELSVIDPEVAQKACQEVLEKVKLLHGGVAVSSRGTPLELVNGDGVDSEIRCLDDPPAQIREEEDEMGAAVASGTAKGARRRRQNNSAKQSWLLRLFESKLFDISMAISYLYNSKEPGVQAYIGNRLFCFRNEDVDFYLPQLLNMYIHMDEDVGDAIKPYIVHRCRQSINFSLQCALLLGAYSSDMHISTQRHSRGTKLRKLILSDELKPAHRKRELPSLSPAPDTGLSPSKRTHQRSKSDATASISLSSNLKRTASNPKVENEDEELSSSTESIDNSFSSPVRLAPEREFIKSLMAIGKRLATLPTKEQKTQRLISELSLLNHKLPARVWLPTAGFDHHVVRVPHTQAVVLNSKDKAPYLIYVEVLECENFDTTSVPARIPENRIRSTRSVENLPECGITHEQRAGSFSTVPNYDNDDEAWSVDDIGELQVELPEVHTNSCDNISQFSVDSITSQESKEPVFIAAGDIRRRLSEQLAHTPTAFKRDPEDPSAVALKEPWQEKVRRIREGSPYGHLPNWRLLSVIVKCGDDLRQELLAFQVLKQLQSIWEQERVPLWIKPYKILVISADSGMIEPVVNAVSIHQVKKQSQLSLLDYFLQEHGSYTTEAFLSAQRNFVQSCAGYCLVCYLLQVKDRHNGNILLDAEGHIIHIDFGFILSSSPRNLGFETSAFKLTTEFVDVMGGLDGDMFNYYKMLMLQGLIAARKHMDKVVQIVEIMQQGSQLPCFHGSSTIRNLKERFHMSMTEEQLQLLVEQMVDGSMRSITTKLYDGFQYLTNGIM

Structure (SMILES)	IC50 (PI4K-IIIβ) [nM]	IC50 (PI4KIIIα) [nM]
COc1ccc(-c2sc(NC(=O)CC3CCOCC3)nc2C)cc1S(=O)(=O)Nc1ccc(F)cc1 [Compound S-170, N-[5-[3-[(4-fluorophenyl)sulfamoyl]-4-methoxy-phenyl]-4-methyl-thiazol-2-yl]-2-tetrahydropyran-4-yl-acetamide]	< 100	–
COc1ccc(-c2sc(NC(=O)CC3CCCC3)nc2C)cc1S(=O)(=O)NC1CCCNC1 (stereo not drawn) [Compound S-173, 2-cyclopentyl-N-[5-[4-methoxy-3-(3piperidylsulfamoyl)phenyl]-4-methyl-thiazol-2-yl]acetamide;2,2,2-trifluoroacetic acid]	< 100	–
COc1ccc(-c2sc(N[C@@H](C)C3CCCCC3)nc2C)cc1S(=O)(=O)N[C@H]1CC[C@H](O)CC1 [Compound S-183, 5-[2-[[(1S)-1-cyclohexylethyl]amino]-4-methyl-thiazol-5-yl]-N-(4-hydroxycyclohexyl)-2-methoxy-benzenesulfonamide]	< 100	–
Cc1ccc(-c2sc(NC(=O)CC3CCCC3)nc2C)cc1S(=O)(=O)NC1CCNCC1 [Compound S-188, 2-cyclopentyl-N-[4-methyl-5-[4-methyl-3-(4-piperidylsulfamoyl)phenyl]thiazol-2-yl]acetamide]	< 100	–
Cc1ccc(-c2sc(NC(=O)CC3CCCC3)nc2C)cc1S(=O)(=O)NC1CCCNC1 (stereo not drawn) [Compound S-189, 2-cyclopentyl-N-[4-methyl-5-[4-methyl-3-(3-piperidylsulfamoyl)phenyl]thiazol-2-yl]acetamide]	< 100	–
COc1ccc(-c2sc(N[C@H](C)C3CCCCC3)nc2C)cc1S(=O)(=O)N[C@H]1CC[C@H](O)CC1 [Compound S-193, 5-[2-[[(1R)-1-cyclohexylethyl]amino]-4-methyl-thiazol-5-yl]-N-(4-hydroxycyclohexyl)-2-methoxy-benzenesulfonamide]	< 100	–
COc1ccc(-c2sc(N[C@H](C)C3CCCCC3)nc2C)cc1S(=O)(=O)N[C@@H]1CCNC1 [Compound S-197, 5-[2-[[(1R)-1-cyclohexylethyl]amino]-4-methyl-thiazol-5-yl]-2-methoxy-N-[(3R)-pyrrolidin-3-yl]benzenesulfonamide]	< 100	–
COc1ccc(-c2sc(N[C@H](C)C3CCCCC3)nc2C)cc1S(=O)(=O)N[C@H]1CC[C@@H](O)CC1 [Compound S-198, 5-[2-[[(1R)-1-cyclohexylethyl]amino]-4-methyl-thiazol-5-yl]-N-(4-hydroxycyclohexyl)-2-methoxy-benzenesulfonamide]	100 to 1000	–
COc1ccc(-c2sc(NCC3CCCCC3)nc2C)cc1S(=O)(=O)NC1CCCC(O)C1 (stereo not drawn) [Compound S-199, 5-[2-(cyclohexylmethylamino)-4-methyl-thiazol-5-yl]-N-(3-hydroxycyclohexyl)-2-methoxy-benzenesulfonamide]	< 100	–
COc1ccc(-c2sc(N[C@H](C)C3CCCCC3)nc2C)cc1S(=O)(=O)N[C@H]1CCNC1 [Compound S-201, 5-[2-[[(1R)-1-cyclohexylethyl]amino]-4-methyl-thiazol-5-yl]-2-methoxy-N-[(3S)-pyrrolidin-3-yl]benzenesulfonamide]	< 100	–
COc1ccc(-c2sc(NCCC3CCCCC3)nc2C)cc1S(=O)(=O)NC1CCNCC1 [Compound S-202, 5-[2-(2-cyclohexylethylamino)-4-methyl-thiazol-5-yl]-2-methoxy-N-(4-piperidyl)benzenesulfonamide]	< 100	–
COc1ccc(-c2sc(N[C@@H](C)C3CCCCC3)nc2C)cc1S(=O)(=O)N[C@H]1CC[C@@H](O)CC1 [Compound S-206, 5-[2-[[(1S)-1-cyclohexylethyl]amino]-4-methyl-thiazol-5-yl]-N-(4-hydroxycyclohexyl)-2-methoxy-benzenesulfonamide]	1000 to 10000	–
COc1ccc(-c2sc(NCCC3CCCCC3)nc2C)cc1S(=O)(=O)NC1CCC(O)C1 (stereo not drawn) [Compound S-214, 5-[2-(2-cyclohexylethylamino)-4-methyl-thiazol-5-yl]-N-(3-hydroxycyclopentyl)-2-methoxy-benzenesulfonamide]	100 to 1000	–
COc1ccc(-c2sc(NC(C)C)nc2C)cc1S(=O)(=O)N[C@H]1CC[C@H](O)CC1 [Compound S-215, N-(4-hydroxycyclohexyl)-5-[2-(isopropylamino)-4-methyl-thiazol-5-yl]-2-methoxy-benzenesulfonamide]	< 100	–
COc1ccc(-c2sc(NC(C)(C)C)nc2C)cc1S(=O)(=O)N[C@H]1CC[C@H](O)CC1 [Compound S-216, 5-[2-(tert-butylamino)-4-methyl-thiazol-5-yl]-N-(4-hydroxycyclohexyl)-2-methoxy-benzenesulfonamide]	< 100	–
COc1ccc(-c2sc(NC(C)(C)C)nc2C)cc1S(=O)(=O)NC1CCCC(O)C1 (stereo not drawn) [Compound S-218, 5-[2-(tert-butylamino)-4-methyl-thiazol-5-yl]-N-(3-hydroxycyclohexyl)-2-methoxy-benzenesulfonamide]	< 100	–
COc1ccc(-c2sc(NC(C)(C)C)nc2C)cc1S(=O)(=O)NC1CCNCC1 [Compound S-219, 5-[2-(tert-butylamino)-4-methyl-thiazol-5-yl]-2-methoxy-N-(4-piperidyl)benzenesulfonamide]	< 100	–
COc1ccc(-c2sc(NC(C)(C)C)nc2C)cc1S(=O)(=O)NC1CCCNC1 (stereo not drawn) [Compound S-220, 5-[2-(tert-butylamino)-4-methyl-thiazol-5-yl]-2-methoxy-N-(3-piperidyl)benzenesulfonamide]	< 100	–
COc1ccc(-c2sc(NCC(C)C)nc2C)cc1S(=O)(=O)N[C@H]1CC[C@H](O)CC1 [Compound S-221, N-(4-hydroxycyclohexyl)-5-[2-(isobutylamino)-4-methyl-thiazol-5-yl]-2-methoxy-benzenesulfonamide]	< 100	–
COc1ccc(-c2sc(NCC(C)C)nc2C)cc1S(=O)(=O)N[C@H]1CC[C@@H](O)CC1 [Compound S-222, N-(4-hydroxycyclohexyl)-5-[2-(isobutylamino)-4-methyl-thiazol-5-yl]-2-methoxy-benzenesulfonamide]	< 100	–
COc1ccc(-c2sc(NCC(C)C)nc2C)cc1S(=O)(=O)NC1CCCC(O)C1 (stereo not drawn) [Compound S-223, N-(3-hydroxycyclohexyl)-5-[2-(isobutylamino)-4-methyl-thiazol-5-yl]-2-methoxy-benzenesulfonamide;2,2,2-trifluoroacetic acid]	< 100	–
COc1ccc(-c2sc(NC(=O)C(C)(C)C)nc2C)cc1S(=O)(=O)Nc1ccc(O)cc1 [PI4KIIIbeta-IN-10]	–	~3000

Now from value to molecule, other results behind:

IC50 (PI4K-IIIβ) [nM]	Structure (SMILES)	IC50 (PI4KIIIα) [nM]
< 100	COc1ccc(-c2sc(NC(=O)CC3CCOCC3)nc2C)cc1S(=O)(=O)Nc1cccc(C)c1 [Compound S-226, N-[5-[4-methoxy-3-(m-tolylsulfamoyl)phenyl]-4-methyl-thiazol-2-yl]-2-tetrahydropyran-4-yl-acetamide]	–
< 100	COc1ccc(-c2sc(NC(=O)CC3CCOCC3)nc2C)cc1S(=O)(=O)Nc1ccc(O)cc1 [Compound S-227, N-[5-[3-[(4-hydroxyphenyl)sulfamoyl]-4-methoxy-phenyl]-4-methyl-thiazol-2-yl]-2-tetrahydropyran-4-yl-acetamide]	–
< 100	COc1ccc(-c2sc(NC(=O)CC3CCOCC3)nc2C)cc1S(=O)(=O)Nc1ccccc1F [Compound S-230, N-[5-[3-[(2-fluorophenyl)sulfamoyl]-4-methoxy-phenyl]-4-methyl-thiazol-2-yl]-2-tetrahydropyran-4-yl-acetamide]	–
< 100	COc1ccc(-c2sc(NC(=O)CC3CCOCC3)nc2C)cc1S(=O)(=O)Nc1ccc(O)cc1C [Compound S-231, N-[5-[3-[(4-hydroxy-2-methyl-phenyl)sulfamoyl]-4-methoxy-phenyl]-4-methyl-thiazol-2-yl]-2-tetrahydropyran-4-yl-acetamide]	–
1000 to 10000	COc1ncc(-c2sc(NC(=O)CC3CCOCC3)nc2C)cc1S(=O)(=O)Nc1ccc(F)cc1F [Compound S-258]	–
< 100	COc1ncc(-c2sc(NC(=O)CC3CCOCC3)nc2C)cc1S(=O)(=O)Nc1cccc(O)c1 [Compound S-259]	–
< 100	COc1ncc(-c2sc(NC(=O)CC3CCOCC3)nc2C)cc1S(=O)(=O)Nc1ccc(F)cc1F [Compound S-260]	–
< 100	COc1ncc(-c2sc(NC(=O)CC3CCOCC3)nc2C)cc1S(=O)(=O)Nc1ccc(O)cc1 [Compound S-261]	–
< 100	COc1ncc(-c2sc(NC(=O)CC3CCOCC3)nc2C)cc1S(=O)(=O)N[C@H]1CC[C@@H](O)CC1 [Compound S-262]	–
< 100	COc1ncc(-c2sc(NC(=O)CC3CCOCC3)nc2C)cc1S(=O)(=O)NC1CCCC(O)C1 (stereo not drawn) [Compound S-263]	–
< 100	COc1ncc(-c2sc(NC(=O)CC3CCOCC3)nc2C)cc1S(=O)(=O)Nc1cccc(C(=O)O)c1 [Compound S-265]	–

From patent US20220062243A1, “P14-Kinase Inhibitors with Anti-Cancer Activity” (The Board of Trustees of the Leland Stanford Junior …, priority 2019, published 2022)
